Reference: US20200282010A1, “IMMUNOGENIC COMPOSITIONS AND USES THEREFOR” (Epiaxis Therapeutics Pty Ltd, priority 2017, published 2020)

Legend:
[1] = system: PBMC cells isolated from CR and PD melanoma liquid biopsies; assay: RT-PCR expression of IL-2, IFN-γ and TNF-α in PBMCs from melanoma patient liquid biopsies; type: cell-based, human; conditions: FIG. 2B
Description: FIG. 2 is a photographic and graphical representation depicting a PKC-θ resistance signature in CD8^+ T-cells from BRAF negative melanoma patients. A) Melanoma patient formalin-fixed paraffin-embedded (FFPE) tissue from primary tumor baseline biopsy for either a complete response (CR), stable disease (SD) or progressive disease (PD) was processed by 3D high resolution microscopy using a Leica Bond RX Stainer. FFPE tissues were fixed and immunofluorescence microscopy was performed probing with primary antibodies to anti-PD1, anti-PKC-θ (T538p) and anti-CD8 with DAPI. Representative images for each dataset are shown. Graph plots represent the TCFI values for CD8, TNFI for PKC-θ and TCFI for PD1 measured using ImageJ minus background (N=40 cells per a patient sample). B) Peripheral blood mononuclear cells (PBMCs) isolated from melanoma patient liquid biopsies were pre-clinically screened with either control or PKCθi nuclear peptide inhibitor. PBMC Samples were screened in triplicate for expression of IL-2, IFN-γ and TNF-α. C) Melanoma patient FFPE tissue from primary tumor baseline biopsy for CR, SD and two PD cohorts defined by responder or resistant to Dual Immunotherapy was processed by 3D high resolution microscopy using a Leica Bond RX Stainer. FFPE tissues were fixed and immunofluorescence microscopy was performed probing with primary antibodies to anti-PD1, anti-PKC-θ (T538p), anti-CD8 and anti-ZEB1 with DAPI. Representative images for each dataset are shown. Graph plots represent the TCFI values for CD8, TNFI for PKC-θ and TNFI for ZEB1 measured using ImageJ minus background (N=40 cells per a patient sample).
IL-2, IFN-γ and TNF-α are markers of T-cell activation and effector capacity whereas ZEB1 is a negative regulator of T-cell responses and is linked with T-cell effector inhibition as well as cancer progression. Accordingly, the expression of these biomarkers was investigated in the context of modulating the PKC-θ pathway. Employing RT-PCR, the present inventors profiled expression of the effect of PKCθi in PBMC cells isolated from CR and PD melanoma liquid biopsies.

PKC-ε = biological target: T1, PKC-ε (Homo sapiens, UniProt Q02156); assay: Nuclear localization of PKC-ε (Fn/c, immunofluorescence), specificity; type: cell-based; conditions: MCF7 breast cancer cell line; FIG. 1D
T1 construct: endogenous in cells; host or cells: MCF7
T1 sequence (Q02156 1-737): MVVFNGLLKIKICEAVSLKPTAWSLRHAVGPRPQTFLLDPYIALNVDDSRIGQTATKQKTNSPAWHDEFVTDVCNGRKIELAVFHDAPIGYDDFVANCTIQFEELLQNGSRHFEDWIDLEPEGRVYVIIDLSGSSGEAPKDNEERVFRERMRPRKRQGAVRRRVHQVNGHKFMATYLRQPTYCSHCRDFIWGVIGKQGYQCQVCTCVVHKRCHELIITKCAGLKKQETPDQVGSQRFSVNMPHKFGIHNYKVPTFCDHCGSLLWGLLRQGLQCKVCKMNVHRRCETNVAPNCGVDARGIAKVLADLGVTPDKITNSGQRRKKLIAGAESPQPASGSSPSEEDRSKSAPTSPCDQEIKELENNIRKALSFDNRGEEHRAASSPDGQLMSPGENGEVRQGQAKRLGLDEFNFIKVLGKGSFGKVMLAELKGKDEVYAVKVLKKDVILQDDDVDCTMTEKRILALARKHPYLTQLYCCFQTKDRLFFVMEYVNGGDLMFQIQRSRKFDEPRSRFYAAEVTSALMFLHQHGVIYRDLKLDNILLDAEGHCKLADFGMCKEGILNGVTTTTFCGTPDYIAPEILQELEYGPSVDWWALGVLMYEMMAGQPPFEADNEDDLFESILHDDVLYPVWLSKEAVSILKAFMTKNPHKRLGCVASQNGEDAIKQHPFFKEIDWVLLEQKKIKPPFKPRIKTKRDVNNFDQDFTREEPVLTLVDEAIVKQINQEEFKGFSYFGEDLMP
Text: (§1) FIG. 1 is a graphical, schematic and photographic representation showing that PKC-θ can be targeted for therapeutic intervention. A) Depicts the strength of binding of recombinant purified His6-PKC-θ to increasing concentrations of different subunits and subunit combinations (α2, α2β1, and β1) of the importin α/β heterodimer nuclear transport receptor using an AlphaScreen® binding assay as described in Wagstaff et al. (2011. Journal of Biomolecular Screening 16 (2):192-200). B-C) Depicts protein structure of PKC-θ indicating binding locations for the PKC-θ peptide inhibitor, PKCθi (RKEIDPPFRPKVK), including the nuclear localization sequence (NLS) of PKC-θ. D) The specificity of PKCθi was examined on cells treated with this peptide inhibitor. Cells were screened with primary antibodies to PKC-θ (T538p), PKC-β2, PKC-β1, PKC-α, PKC-ε and PKC-γ. The nuclear to cytoplasmic fluorescence ratio (Fn/c) using the equation: Fn/c=(Fn−Fb)/(Fc−Fb), where Fn is nuclear fluorescence, Fc is cytoplasmic fluorescence, and Fb is background fluorescence was used to determine the impact on nuclear translocation/localization. […] EC^50 of inhibitors calculated using GraphPad PRISM software. F) The PKC-θ kinase activity was measured using the PKC kinase activity kit from ENZO life sciences and recombinant PKC-θ; C27 is an inhibitor of PKC-θ kinase activity, which is disclosed in Jimenez et al. (2013. […]

PKC-θ (T538p) = biological target: T2, PKC-θ (T538p) (Homo sapiens, UniProt Q04759); assay: Nuclear localization of PKC-θ (Fn/c, immunofluorescence) in cells treated with peptide inhibitor; type: cell-based; conditions: MCF7 breast cancer cell line; FIG. 1D
T2 construct: endogenous in cells; host or cells: MCF7
T2 sequence (Q04759 whole entry): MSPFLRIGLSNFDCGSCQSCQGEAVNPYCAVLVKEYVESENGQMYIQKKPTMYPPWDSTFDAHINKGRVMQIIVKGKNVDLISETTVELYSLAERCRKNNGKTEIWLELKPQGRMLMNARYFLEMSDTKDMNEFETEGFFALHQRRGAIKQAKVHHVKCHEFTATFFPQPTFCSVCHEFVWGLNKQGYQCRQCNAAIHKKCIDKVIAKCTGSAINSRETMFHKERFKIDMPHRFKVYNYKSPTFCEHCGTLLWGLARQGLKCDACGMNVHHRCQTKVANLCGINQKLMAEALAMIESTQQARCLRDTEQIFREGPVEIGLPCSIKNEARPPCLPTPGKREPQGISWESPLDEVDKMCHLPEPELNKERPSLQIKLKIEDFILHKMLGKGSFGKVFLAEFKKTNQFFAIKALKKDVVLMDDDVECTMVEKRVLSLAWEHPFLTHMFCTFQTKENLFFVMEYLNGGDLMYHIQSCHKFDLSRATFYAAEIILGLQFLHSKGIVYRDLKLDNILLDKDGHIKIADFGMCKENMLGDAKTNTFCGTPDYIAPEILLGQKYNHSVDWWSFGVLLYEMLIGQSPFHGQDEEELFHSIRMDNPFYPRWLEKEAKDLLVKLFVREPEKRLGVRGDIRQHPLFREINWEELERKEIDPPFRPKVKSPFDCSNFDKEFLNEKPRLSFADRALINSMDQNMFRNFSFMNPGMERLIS
Text: as §1

In the case of RKEIDPPFRPKVK [PKCθi], the “expression of IFN-γ” value ([1]; CR patient cohort) is reported as “some induction”, the “expression of IL-2” value ([1]; CR patient cohort) is reported as “some induction” and the “expression of TNF-α” value ([1]; CR patient cohort) is reported as “some induction”. The “expression of IFN-γ” value ([1]; PD patient cohort) was “significantly induced”, the “expression of IL-2” value ([1]; PD patient cohort) was “significantly induced” and the “expression of TNF-α” value ([1]; PD patient cohort) was “significantly induced”. For the same sequence, the “nuclear localization of PKC-ε” value (PKC-ε) was “no effect” and the “nuclear localization of PKC-θ” value (PKC-θ (T538p)) was “markedly inhibit”.
